Measurements published in article PMC9808420 (Biomedicine & Pharmacotherapy, 2023).
Counter-ions that a name gives are not always drawn. Like-named read-outs stand apart in the source and are kept apart here.

What was measured:
SARS-CoV-2 pseudovirus = assay: organism not typed; type: cell-based; details: read-out: EC50 (S)
[1] = tested on: VSV-G pseudotyped lentivirus; assay: microbe, parasite or virus in culture; type: cell-based; details: read-out: EC50 (VSVG)
RBD domain of S protein = RBD domain of S protein (Severe acute respiratory syndrome coronavirus 2, UniProt P0DTC2); assay: biochemical; type: binding, SARS-CoV-2
[2] = target: SARS-CoV-2 Spike protein RBD and human ACE2 (Severe acute respiratory syndrome coronavirus 2, UniProt P0DTC2); type: binding, SARS-CoV-2; human

Compound	EC50 (SARS-CoV-2 pseudovirus; 48 h) [µM]	EC50 ([1]; Lentivirus) [µM]	Kd (RBD domain of S protein) [µM]	EC50 (SARS-CoV-2 pseudovirus) [µM]	EC50 [1] [µM]	Kd (RBD domain of S protein; read-out: KD (equilibrium dissociation constant)) [µM]	Blocking of binding of SARS-CoV-2 RBD to ACE2 in vitro [2]
CN[C@H](CC(C)C)C(=O)N[C@H]1C(=O)N[C@@H](CC(N)=O)C(=O)N[C@H]2C(=O)N[C@H]3C(=O)N[C@H](C(=O)N[C@H](C(=O)O)c4cc(O)cc(O)c4-c4cc3ccc4O)[C@H](O)c3ccc(c(Cl)c3)Oc3cc2cc(c3O[C@@H]2O[C@H](CO)[C@@H](O)[C@H](O)[C@H]2O[C@H]2C[C@](C)(N)[C@H](O)[C@H](C)O2)Oc2ccc(cc2Cl)[C@H]1O [Vancomycin hydrochloride]	> 100	> 100	1600				
Teicoplanin				> 100	> 100	673	fail to block binding
